Reference: patent US11331302B2, “Transmucosal delivery of tocotrienol” (INVICTUS BIOTECHNOLOGY PTY LTD., priority 2012, dated 2022)

Experiments:
[1] = Plasma tocotrienol levels after sublingual tablets; type: in vivo, human; conditions: 4×10 mg tablets sublingually, 2 subjects
Experimental: A 220 mg sublingual tablet formulation was prepared containing a dose of 10 mg tocotrienol comprised of the actives: delta-tocotrienol 9 mg, gamma tocotrienol 1 mg; and the following excipients: dextrose, mannitol, marine gelatin, 1-leucine, 1-arginine, pre-gel starch, PEG-200, propylene glycol, talc, silica dioxide, magnesium stearate, carotenoids.
A test was carried out on 2 subjects who dissolved 4×10 mg tablets sublingually.

[2] = target: T1, alpha-tocopherol transport protein (a-TTP) (Rattus norvegicus, UniProt P41034); conditions: alpha-tocopherol = 100%; cited from earlier work
T1 sequence (P41034 1-278): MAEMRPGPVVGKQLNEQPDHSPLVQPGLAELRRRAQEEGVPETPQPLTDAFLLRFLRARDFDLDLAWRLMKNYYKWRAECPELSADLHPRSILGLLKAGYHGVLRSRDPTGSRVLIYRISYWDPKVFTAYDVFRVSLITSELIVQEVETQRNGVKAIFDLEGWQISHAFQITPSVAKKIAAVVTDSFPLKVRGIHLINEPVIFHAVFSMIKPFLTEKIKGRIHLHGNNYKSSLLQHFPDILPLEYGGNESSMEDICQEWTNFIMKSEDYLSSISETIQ

[3] = humans; same dose of tocotrienol preparations; cited from earlier work
[4] = animal study, estimated; cited from earlier work
[5] = in vivo
Experimental: FIG. 9: Appearance of blood plasma concentrations using gel and tablet sublingual formulations of a 40 mg dose of tocotrienols. Delta tocotrienol (delta-T3) and gamma tocotrienol (gamma-T3) levels were measured in plasma at time points up to 180 minutes from administration of the gel or tablet (tab) formulation.
A test was carried out in 2 subjects who administered 40 mg tocotrienols in 2 ml of gel sublingually. Blood samples were collected from a forearm venous catheter before administration and at 15, 60, and 180 minutes after administration.

**Q.** For `CC(C)=CCC/C(C)=C/CC/C(C)=C/CC[C@]1(C)CCc2cc(O)c(C)c(C)c2O1` [gamma tocotrienol], which plasma level ([1]; 20 minute point) is on record?
**A.** Its plasma level is 800 nM.

**Q.** And the plasma level ([1]; 1 h)?
**A.** Its plasma level is 400 nM.

**Q.** What about the plasma level ([1]; 2 h) of the same compound?
**A.** Its plasma level is 190 nM.

**Q.** And the plasma level ([1]; 3 h)?
**A.** Its plasma level is 70 nM.

**Q.** What about the “relative affinity towards a-TTP” value [2] of the same compound?
**A.** The value was 9%.

**Q.** Which results are given for alpha-tocotrienol?
**A.** plasma concentration, fold higher than that of gamma-tocotrienol [3]: 2 fold; plasma concentration, times higher than delta-tocotrienol [3]: ~10 times; relative affinity towards a-TTP [2]: 12%

**Q.** With tocopherol as the compound, how does the oral bioavailability [4] read?
**A.** The oral bioavailability was 36%.

**Q.** For `Cc1c(C)c2c(c(C)c1O)CC[C@@](C)(CCC[C@H](C)CCC[C@H](C)CCCC(C)C)O2` [alpha-tocopherol], which “relative affinity towards a-TTP” value [2] is on record?
**A.** Its value is 100%.

**Q.** Which “ratio of delta to gamma tocotrienol levels in plasma” value [5] does the source give for `CC(C)=CCC/C(C)=C/CC/C(C)=C/CC[C@]1(C)CCc2cc(O)cc(C)c2O1` [delta tocotrienol] here?
**A.** The value was 9:1.

**Q.** For `Cc1cc(O)cc2c1O[C@](C)(CCC[C@H](C)CCC[C@H](C)CCCC(C)C)CC2` [delta-tocopherol], which “relative affinity towards a-TTP” value [2] is on record?
**A.** Its value is 2%.
